Laboratory results: patent publication US9284335B2, “Substituted pyrido[3,2-e][1,2,4]triazolo[1,5-c]pyrimidines, pyrido[2,3-e][1,2,4]triazolo[1,5-c]pyrimidines and/or [1,2,4]triazolo[1,5-c]pteridines for treatment of central nervous system diseases and disorders” (DART NEUROSCIENCE (CAYMAN) LTD., priority 2012, dated 2016)

Tested on: NS1 cells
Assay: Neurite outgrowth (NOG) assay
Format: cell-based
Experimental: Neuroscreen 1 (NS1) Cells (Cellomics Inc.) were cultured on collagen type I coated 75 cm2 plastic flasks (Biocoat, Becton Dickinson) in a humidified incubator at 37° C. in 5% CO2. Cells were cultured in RPMI complete cell culture medium (Cambrex) supplemented with 10% heat-inactivated horse serum (Invitrogen), 5% heat-inactivated fetal bovine serum (Cellgro), and 2 mM L-glutamine (Cambrex). For expansion, the cells were trypsinized and split at 80% confluence. Cell culture media was changed every 2 to 3 days.
NS1 cells were harvested and counted using a Coulter counter (Becton Dickinson Coulter Z1). Cells were seeded in 96-well collagen I coated plates at a density of 2000 cells per well in volume of 200 μl. RPMI media was supplemented with 200 ng/ml nerve growth factor (NGF, Sigma). NS1 cells were incubated for 72 hours to allow differentiation to a neuronal phenotype. […]
Antibody-stained 96-well plates were stored at 4° C. in the dark until scanning. […] The neurite outgrowth assay is based on two channels to scanning: (1) Channel 1, which detects the Hoechst Dye and is used by the software to identify cells and for automated focusing; and (2) Channel 2, which detects the FITC fluorescence of the secondary antibody and is used by the software to calculate all data generated in reference to neurites. […]

COc1ccc(C2CNC(=O)C2)cc1OC1CCCC1 (centres unmarked) [Rolipram]
neurite length and branching / neurite outgrowth (in combination with forskolin): enhanced in dose-dependent manner | neurite length and branching / neurite outgrowth (without forskolin): not affected
